Test results published in ChEMBL document CHEMBL1240356, “Efficacy profiles of daptomycin for treatment of invasive and noninvasive pulmonary infections with Streptococcus pneumoniae” (2010).
The source made the active and inactive calls. The calls are words filed in the database; no cut-off is given here.

What was measured:
Streptococcus pneumoniae [1] = test: Antibacterial activity against 1.5 x 10^7 CFU Streptococcus pneumoniae serotype 2 infected in therapeutic C57BL/6 mouse model assessed as increase in compound level in BALF at 6 mg/kg, ip measured on day 3 post infection; format: functional, organism-based; parameters: dose 6 mg/kg
Streptococcus pneumoniae [2] = test: Antibacterial activity against high dose 1.5 x 10^7 CFU Streptococcus pneumoniae serotype 2 infected in semitherapeutic C57BL/6 mouse model assessed as bacterial count in blood at 6 mg/kg, ip measured after 1 day post infection; format: functional; settings: route intraperitoneal
Streptococcus pneumoniae [3] = test: Antibacterial activity against low dose 5 x 10^6 CFU Streptococcus pneumoniae serotype 19 infected in semitherapeutic C57BL/6 mouse model assessed as bacteremic mouse at 6 mg/kg, ip measured after 2 days post infection; format: functional, organism-based; parameters: dose 6 mg/kg
Streptococcus pneumoniae [4] = test: Antibacterial activity against high dose 1.5 x 10^7 CFU Streptococcus pneumoniae serotype 2 infected in semitherapeutic C57BL/6 mouse model assessed as reduction of bacteremia at 6 mg/kg, ip measured after 10 day post infection; format: functional, organism-based; parameters: dose 6 mg/kg
Streptococcus pneumoniae [5] = test: Antibacterial activity against high dose 1.5 x 10^7 CFU Streptococcus pneumoniae serotype 19 infected in semitherapeutic C57BL/6 mouse model assessed as bacterial count in lung at 6 mg/kg, ip measured after 1 day post infection; format: functional; settings: route intraperitoneal
Streptococcus pneumoniae [6] = test: Antibacterial activity against high dose 1.5 x 10^7 CFU Streptococcus pneumoniae serotype 2 infected in semitherapeutic C57BL/6 mouse model assessed as bacterial count in lung at 6 mg/kg, ip measured after 1 day post infection; format: functional; settings: route intraperitoneal
Streptococcus pneumoniae [7] = test: Antibacterial activity against high dose 1.5 x 10^7 CFU Streptococcus pneumoniae serotype 2 infected in semitherapeutic C57BL/6 mouse model assessed as bacterial count in liver at 6 mg/kg, ip measured after 1 day post infection; format: functional; settings: route intraperitoneal
Streptococcus pneumoniae [8] = test: Antibacterial activity against high dose 1.5 x 10^7 CFU Streptococcus pneumoniae serotype 2 infected in therapeutic C57BL/6 mouse model assessed as bacterial count in blood at 6 mg/kg, ip measured after 3 days post infection; format: functional; settings: route intraperitoneal
Streptococcus pneumoniae [9] = test: Antibacterial activity against high dose 1.5 x 10^7 CFU Streptococcus pneumoniae serotype 19 infected in semitherapeutic C57BL/6 mouse model assessed as bacteremic mice at 6 mg/kg, ip measured after 4 days post infection; format: functional, organism-based; parameters: dose 6 mg/kg
Streptococcus pneumoniae [10] = test: Antibacterial activity against high dose 1.5 x 10^7 CFU Streptococcus pneumoniae serotype 2 infected in therapeutic C57BL/6 mouse model assessed as bacterial count in lung at 6 mg/kg, ip measured after 5 day post infection; format: functional; settings: route intraperitoneal
Streptococcus pneumoniae [11] = test: Antibacterial activity against high dose 1.5 x 10^7 CFU Streptococcus pneumoniae serotype 2 infected in semitherapeutic C57BL/6 mouse model assessed as bacterial count in spleen at 6 mg/kg, ip measured after 1 day post infection; format: functional; settings: route intraperitoneal
Streptococcus pneumoniae [12] = test: Antibacterial activity against high dose 1.5 x 10^7 CFU Streptococcus pneumoniae serotype 19 infected in semitherapeutic C57BL/6 mouse model assessed as bacterial count in lung at 6 mg/kg, ip measured after 2 days post infection; format: functional; settings: route intraperitoneal
Streptococcus pneumoniae [13] = test: Antibacterial activity against high dose 1.5 x 10^7 CFU Streptococcus pneumoniae serotype 2 infected in semitherapeutic C57BL/6 mouse model assessed as bacterial count in lung at 6 mg/kg, ip measured after 2 days post infection; format: functional; settings: route intraperitoneal
Streptococcus pneumoniae [14] = test: Antibacterial activity against 5 x 10^6 CFU Streptococcus pneumoniae serotype 2 infected in semitherapeutic C57BL/6 mouse model assessed as bacterial count in lung at 6 mg/kg, ip measured after 1 day post infection; format: functional; settings: route intraperitoneal
Streptococcus pneumoniae [15] = test: Antibacterial activity against 1.5 x 10^7 CFU Streptococcus pneumoniae serotype 2 infected in therapeutic C57BL/6 mouse model assessed as effect on leukocytes infiltration in BALF at 6 mg/kg, ip measured on day 3 post infection; format: functional, organism-based; parameters: dose 6 mg/kg
Streptococcus pneumoniae [16] = test: Antibacterial activity against 1.5 x 10^7 CFU Streptococcus pneumoniae serotype 19 infected in therapeutic C57BL/6 mouse model assessed as increase in serum compound level at 6 mg/kg, ip measured on day 3 post infection; format: functional, organism-based; parameters: dose 6 mg/kg
Streptococcus pneumoniae [17] = test: Antibacterial activity against 1.5 x 10^7 CFU Streptococcus pneumoniae serotype 2 infected in therapeutic C57BL/6 mouse model assessed as effect on lung permeability at 6 mg/kg, ip measured on day 3 post infection; format: functional, organism-based; parameters: dose 6 mg/kg
Streptococcus pneumoniae [18] = test: Antibacterial activity against low dose 5 x 10^6 CFU Streptococcus pneumoniae serotype 2 infected in semitherapeutic C57BL/6 mouse model assessed as reduction of bacteremia at 6 mg/kg, ip measured after 3 dayss post infection; format: functional, organism-based; parameters: dose 6 mg/kg
Streptococcus pneumoniae [19] = test: Antibacterial activity against high dose 1.5 x 10^7 CFU Streptococcus pneumoniae serotype 19 infected in semitherapeutic C57BL/6 mouse model assessed as bacterial count in lung at 6 mg/kg, ip measured after 5 day post infection; format: functional; settings: route intraperitoneal
Streptococcus pneumoniae [20] = test: Antibacterial activity against high dose 1.5 x 10^7 CFU Streptococcus pneumoniae serotype 19 infected in semitherapeutic C57BL/6 mouse model assessed as bacterial count in lung at 6 mg/kg, ip measured after 3 days post infection; format: functional; settings: route intraperitoneal
Streptococcus pneumoniae [21] = test: Antibacterial activity against high dose 1.5 x 10^7 CFU Streptococcus pneumoniae serotype 2 infected in therapeutic C57BL/6 mouse model assessed as reduction of bacteremia at 6 mg/kg, ip measured after 5 day post infection; format: functional, organism-based; parameters: dose 6 mg/kg
Streptococcus pneumoniae [22] = test: Antibacterial activity against high dose 1.5 x 10^7 CFU Streptococcus pneumoniae serotype 2 infected in therapeutic C57BL/6 mouse model assessed as bacterial count in lung at 6 mg/kg, ip measured after 4 days post infection; format: functional; settings: route intraperitoneal
Streptococcus pneumoniae [23] = test: Antibacterial activity against high dose 1.5 x 10^7 CFU Streptococcus pneumoniae serotype 2 infected in semitherapeutic C57BL/6 mouse model assessed as bacterial count in spleen at 6 mg/kg, ip measured after 2 days post infection; format: functional; settings: route intraperitoneal
Streptococcus pneumoniae [24] = test: Antibacterial activity against high dose 1.5 x 10^7 CFU Streptococcus pneumoniae serotype 2 infected in therapeutic C57BL/6 mouse model assessed as bacterial count in lung at 6 mg/kg, ip measured after 3 days post infection; format: functional; settings: route intraperitoneal
Streptococcus pneumoniae [25] = test: Antibacterial activity against 1.5 x 10^7 CFU Streptococcus pneumoniae serotype 2 infected in therapeutic C57BL/6 mouse model assessed as survival rate at 20 mg/kg, ip qd beginning 2 days post infection measured after 3 days post infection; format: functional; settings: route intraperitoneal
Streptococcus pneumoniae [26] = test: Antibacterial activity against 5 x 10^6 CFU Streptococcus pneumoniae serotype 2 infected in semitherapeutic C57BL/6 mouse model assessed as reduction of bacteremia at 6 mg/kg, ip measured after 2 days post infection; format: functional, organism-based; parameters: dose 6 mg/kg
Streptococcus pneumoniae [27] = test: Antibacterial activity against low dose 5 x 10^6 CFU Streptococcus pneumoniae serotype 2 infected in semitherapeutic C57BL/6 mouse model assessed as reduction of bacteremia at 6 mg/kg, ip measured after 10 day post infection; format: functional, organism-based; parameters: dose 6 mg/kg
Streptococcus pneumoniae [28] = test: Antibacterial activity against high dose 1.5 x 10^7 CFU Streptococcus pneumoniae serotype 2 infected in semitherapeutic C57BL/6 mouse model assessed as bacterial count in blood at 6 mg/kg, ip measured after 2 days post infection; format: functional; settings: route intraperitoneal
Streptococcus pneumoniae [29] = test: Antibacterial activity against 5 x 10^6 CFU Streptococcus pneumoniae serotype 2 infected in semitherapeutic C57BL/6 mouse model assessed as bacterial count in spleen at 6 mg/kg, ip measured after 1 day post infection; format: functional; settings: route intraperitoneal
Streptococcus pneumoniae [30] = test: Antibacterial activity against 1.5 x 10^7 CFU Streptococcus pneumoniae serotype 2 infected in therapeutic C57BL/6 mouse model assessed as survival rate at 6 mg/kg, ip qd beginning 2 days post infection measured after 3 days post infection; format: functional; settings: route intraperitoneal

CCCCCCCCCC(=O)N[C@@H](Cc1c[nH]c2ccccc12)C(=O)N[C@H](CC(N)=O)C(=O)N[C@@H](CC(=O)O)C(=O)N[C@@H]1C(=O)NCC(=O)N[C@@H](CCCN)C(=O)N[C@@H](CC(=O)O)C(=O)N[C@H](C)C(=O)N[C@@H](CC(=O)O)C(=O)NCC(=O)N[C@H](CO)C(=O)N[C@@H]([C@H](C)CC(=O)O)C(=O)N[C@@H](CC(=O)c2ccccc2N)C(=O)O[C@@H]1C
Activity (Streptococcus pneumoniae [1]): inactive
log10cfu (Streptococcus pneumoniae [2]): 2.6
Activity (Streptococcus pneumoniae [3]): Active
Activity (Streptococcus pneumoniae [4]): Active
log10cfu (Streptococcus pneumoniae [5]): 6.4
log10cfu (Streptococcus pneumoniae [6]): 6
log10cfu (Streptococcus pneumoniae [7]): 1.2
log10cfu (Streptococcus pneumoniae [8]): 2.3
Activity (Streptococcus pneumoniae [9]): Active
log10cfu (Streptococcus pneumoniae [10]): 2.8
log10cfu (Streptococcus pneumoniae [11]): 1.4
log10cfu (Streptococcus pneumoniae [12]): 6.2
log10cfu (Streptococcus pneumoniae [13]): 4.2
log10cfu (Streptococcus pneumoniae [14]): 5.4
Activity (Streptococcus pneumoniae [15]): Active
Activity (Streptococcus pneumoniae [16]): Active
Activity (Streptococcus pneumoniae [17]): Active
Activity (Streptococcus pneumoniae [18]): Active
log10cfu (Streptococcus pneumoniae [19]): 4.7
log10cfu (Streptococcus pneumoniae [20]): 7.1
Activity (Streptococcus pneumoniae [21]): Active
log10cfu (Streptococcus pneumoniae [22]): 2.9
log10cfu (Streptococcus pneumoniae [23]): 0.4
log10cfu (Streptococcus pneumoniae [24]): 5.5
Activity (Streptococcus pneumoniae [25]): 60%
Activity (Streptococcus pneumoniae [26]): Active
Activity (Streptococcus pneumoniae [27]): Active
log10cfu (Streptococcus pneumoniae [28]): 0.1
log10cfu (Streptococcus pneumoniae [29]): 2.2
Activity (Streptococcus pneumoniae [30]): 70%
